According to article PMC11062894, “Protein-based bandpass filters for controlling cellular signaling with chemical inputs” (Nature Chemical Biology, 2023):
Where “and” joins values, the source holds several entries; their conditions need not be identical. Equal entries are not always repeated.

Tested on: GEMS receptors with CBPvene (Bcl2–LD3 and Bcl2high variants), STAT3-driven SEAP in HEK293T cells
Experiment: GEMS SEAP reporter assay, CBPvene (Bcl2high, LD3-v and Bcl2-v variants) with venetoclax
Type: cell-based
[1] = CBPVene-v5-Bcl2v2, Venetoclax 1000 nM
[2] = CBPVene-v5-Bcl2v2, Venetoclax 3160 nM
[3] = CBPVene-v5-Bcl2v2, Venetoclax 10000 nM
[4] = CBPVene-v5-LD3v1, Venetoclax 1 nM
[5] = CBPVene-v5-LD3v1, Venetoclax 3.16 nM
[6] = CBPVene-v5-LD3v1, Venetoclax 10 nM
[7] = CBPVene-v5-LD3v1, Venetoclax 31.6 nM
[8] = CBPVene-v5-LD3v1, Venetoclax 316 nM
[9] = CBPVene-v5-LD3v1, Venetoclax 1000 nM
[10] = CBPVene-v5-LD3v1, Venetoclax 10000 nM
[11] = Supp Fig 10a, Bcl2-v1, venetoclax 316 nM
[12] = Supp Fig 10a, Bcl2-v1, venetoclax 1000 nM
[13] = Supp Fig 10a, Bcl2-v1, venetoclax 3160 nM
[14] = Supp Fig 10a, Bcl2-v1, venetoclax 10000 nM
[15] = Supp Fig 10a, Bcl2-v2, venetoclax 316 nM
[16] = Supp Fig 10a, Bcl2-v2, venetoclax 1000 nM
[17] = Supp Fig 10a, Bcl2-v2, venetoclax 3160 nM
[18] = Supp Fig 10a, Bcl2-v2, venetoclax 10000 nM
[19] = Supp Fig 10a, Bcl2-v3, venetoclax 316 nM
[20] = Supp Fig 10a, Bcl2-v3, venetoclax 1000 nM
[21] = Supp Fig 10a, Bcl2-v3, venetoclax 3160 nM
[22] = Supp Fig 10a, Bcl2-v3, venetoclax 10000 nM
[23] = Supp Fig 10a, Bcl2-v4, venetoclax 316 nM
[24] = Supp Fig 10a, Bcl2-v4, venetoclax 1000 nM
[25] = Supp Fig 10a, Bcl2-v4, venetoclax 3160 nM
[26] = Supp Fig 10a, Bcl2-v4, venetoclax 10000 nM
[27] = Supp Fig 10a, Bcl2-v5, venetoclax 316 nM
[28] = Supp Fig 10a, Bcl2-v5, venetoclax 1000 nM
[29] = Supp Fig 10a, Bcl2-v5, venetoclax 3160 nM
[30] = Supp Fig 10a, Bcl2-v5, venetoclax 10000 nM
[31] = Supp Fig 10a, Bcl2-v6, venetoclax 316 nM
[32] = Supp Fig 10a, Bcl2-v6, venetoclax 1000 nM
[33] = Supp Fig 10a, Bcl2-v6, venetoclax 3160 nM
[34] = Supp Fig 10a, Bcl2-v6, venetoclax 10000 nM
[35] = Supp Fig 10a, Bcl2, venetoclax 316 nM
[36] = Supp Fig 10a, Bcl2, venetoclax 1000 nM
[37] = Supp Fig 10a, Bcl2, venetoclax 3160 nM
[38] = Supp Fig 10a, Bcl2, venetoclax 10000 nM
[39] = Supp Fig 10b, Bcl2-v1, venetoclax 1 nM
[40] = Supp Fig 10b, Bcl2-v1, venetoclax 3.16 nM
[41] = Supp Fig 10b, Bcl2-v1, venetoclax 10 nM
[42] = Supp Fig 10b, Bcl2-v1, venetoclax 31.6 nM
[43] = Supp Fig 10b, Bcl2-v1, venetoclax 100 nM
[44] = Supp Fig 10b, Bcl2-v1, venetoclax 316 nM
[45] = Supp Fig 10b, Bcl2-v1, venetoclax 1000 nM
[46] = Supp Fig 10b, Bcl2-v1, venetoclax 3160 nM
[47] = Supp Fig 10b, Bcl2-v1, venetoclax 10000 nM
[48] = Supp Fig 10b, Bcl2-v2, venetoclax 1 nM
[49] = Supp Fig 10b, Bcl2-v2, venetoclax 3.16 nM
[50] = Supp Fig 10b, Bcl2-v2, venetoclax 10 nM
[51] = Supp Fig 10b, Bcl2-v2, venetoclax 31.6 nM
[52] = Supp Fig 10b, Bcl2-v2, venetoclax 100 nM
[53] = Supp Fig 10b, Bcl2-v2, venetoclax 316 nM
[54] = Supp Fig 10b, Bcl2-v2, venetoclax 1000 nM
[55] = Supp Fig 10b, Bcl2-v3, venetoclax 1 nM
[56] = Supp Fig 10b, Bcl2-v3, venetoclax 3.16 nM
[57] = Supp Fig 10b, Bcl2-v3, venetoclax 10 nM
[58] = Supp Fig 10b, Bcl2-v3, venetoclax 31.6 nM
[59] = Supp Fig 10b, Bcl2-v3, venetoclax 100 nM
[60] = Supp Fig 10b, Bcl2-v3, venetoclax 316 nM
[61] = Supp Fig 10b, Bcl2-v3, venetoclax 1000 nM
[62] = Supp Fig 10b, Bcl2-v3, venetoclax 3160 nM
[63] = Supp Fig 10b, Bcl2-v3, venetoclax 10000 nM
[64] = Supp Fig 10b, Bcl2-v4, venetoclax 1 nM
[65] = Supp Fig 10b, Bcl2-v4, venetoclax 3.16 nM
[66] = Supp Fig 10b, Bcl2-v4, venetoclax 10 nM
[67] = Supp Fig 10b, Bcl2-v4, venetoclax 31.6 nM

CC1(C)CCC(CN2CCN(c3ccc(C(=O)NS(=O)(=O)c4ccc(NCC5CCOCC5)c([N+](=O)[O-])c4)c(Oc4cnc5[nH]ccc5c4)c3)CC2)=C(c2ccc(Cl)cc2)C1 [Venetoclax]
Normalized data Figure 5f [1]: 77.3797 and 77.4841 and 64.4738
Raw data Figure 5f [1]: 141.449 and 149.007 and 144.09
Normalized data Figure 5f [2]: 35.229 and 32.7238 and 23.2546
Raw data Figure 5f [2]: 64.398 and 62.9303 and 51.9708
Normalized data Figure 5f [3]: 15.1423 and 11.3283 and 13.9843
Raw data Figure 5f [3]: 27.6798 and 21.7852 and 31.253
Raw data of Independent repeat of CBPVene-v5 vs CBPVene-v5-LD3v1 (CBPVene-v5-LD3v1, Venetoclax 0.01 nM): 12.511 and 11.9088 and 12.8792
Normalized data Figure 5c [4]: 16.3682 and 15.9533 and 20.5713
Raw data Figure 5c [4]: 17.8707 and 19.0514 and 21.7836
Raw data of Independent repeat of CBPVene-v5 vs CBPVene-v5-LD3v1 [4]: 12.1852 and 11.7838 and 11.0502
Normalized data Figure 5c [5]: 15.1322 and 15.2538 and 18.8062
Raw data Figure 5c [5]: 16.5212 and 18.216 and 19.9144
Raw data of Independent repeat of CBPVene-v5 vs CBPVene-v5-LD3v1 [5]: 10.1265 and 10.196 and 11.563
Normalized data Figure 5c [6]: 22.3408 and 21.0089 and 24.5666
Raw data Figure 5c [6]: 24.3915 and 25.0888 and 26.0143
Raw data of Independent repeat of CBPVene-v5 vs CBPVene-v5-LD3v1 [6]: 13.7645 and 12.6779 and 10.7132
Normalized data Figure 5c [7]: 35.5947 and 28.4669 and 38.0182
Raw data Figure 5c [7]: 38.8619 and 33.9951 and 40.2586
Raw data of Independent repeat of CBPVene-v5 vs CBPVene-v5-LD3v1 [7]: 17.7633 and 18.8924 and 25.5
Raw data of Independent repeat of CBPVene-v5 vs CBPVene-v5-LD3v1 (CBPVene-v5-LD3v1, Venetoclax 100 nM): 38.3822 and 37.0306 and 47.6081
Normalized data Figure 5c [8]: 100
Raw data Figure 5c [8]: 109.179 and 119.42 and 105.893
Raw data of Independent repeat of CBPVene-v5 vs CBPVene-v5-LD3v1 [8]: 60.7806 and 63.7576 and 57.9589
Normalized data Figure 5c [9]: 77.7899 and 68.2523 and 65.7986
Raw data Figure 5c [9]: 84.9301 and 81.5067 and 69.6762
Raw data of Independent repeat of CBPVene-v5 vs CBPVene-v5-LD3v1 [9]: 40.6135 and 38.6218 and 45.893
Raw data of Independent repeat of CBPVene-v5 vs CBPVene-v5-LD3v1 (CBPVene-v5-LD3v1, Venetoclax 3160 nM): 20.9864 and 23.9183 and 23.9906
Normalized data Figure 5c [10]: 10.3166 and 8.27 and 9.621
Raw data Figure 5c [10]: 11.2636 and 9.876 and 10.1879
SEAP (U/L) (Figure 4h, Venetoclax 1 nM, representative data and independent repeats 1, 2 (triplicates)): 40.3558 U/L and 36.3798 U/L and 44.7796 U/L and 29.5956 U/L and 26.0853 U/L and 29.9849 U/L
SEAP [11]: 16.9918
SEAP normalized (max=100) [11]: 72.9686
SEAP [12]: 11.8168
SEAP normalized (max=100) [12]: 50.7451
SEAP [13]: 18.4889
SEAP normalized (max=100) [13]: 79.3975
SEAP [14]: 5.997
SEAP normalized (max=100) [14]: 25.7548
SEAP [15]: 33.4045
SEAP normalized (max=100) [15]: 100
SEAP [16]: 18.2725
SEAP normalized (max=100) [16]: 54.7009
SEAP [17]: 17.6043
SEAP normalized (max=100) [17]: 52.7004
SEAP [18]: 8.798
SEAP normalized (max=100) [18]: 26.337
SEAP [19]: 24.8752
SEAP normalized (max=100) [19]: 70.756
SEAP [20]: 15.674
SEAP normalized (max=100) [20]: 44.5837
SEAP [21]: 8.48
SEAP normalized (max=100) [21]: 24.1195
SEAP [22]: 5.027
SEAP normalized (max=100) [22]: 14.2997
SEAP [23]: 20.3221
SEAP normalized (max=100) [23]: 44.5121
SEAP [24]: 12.5122
SEAP normalized (max=100) [24]: 27.4059
SEAP [25]: 8.91
SEAP normalized (max=100) [25]: 19.5153
SEAP [26]: 6.178
SEAP normalized (max=100) [26]: 13.5319
SEAP [27]: 16.3938
SEAP normalized (max=100) [27]: 41.8642
SEAP [28]: 8.859
SEAP normalized (max=100) [28]: 22.6219
SEAP [29]: 8.087
SEAP normalized (max=100) [29]: 20.652
SEAP [30]: 5.778
SEAP normalized (max=100) [30]: 14.7539
SEAP [31]: 25.9953
SEAP normalized (max=100) [31]: 62.1077
SEAP [32]: 19.2478
SEAP normalized (max=100) [32]: 45.9867
SEAP [33]: 13.59
SEAP normalized (max=100) [33]: 32.4691
SEAP [34]: 7.797
SEAP normalized (max=100) [34]: 18.6277
SEAP [35]: 206.027
SEAP normalized (max=100) [35]: 100
SEAP [36]: 118.152
SEAP normalized (max=100) [36]: 57.3479
SEAP [37]: 9.9385
SEAP normalized (max=100) [37]: 4.824
SEAP [38]: 6.696
SEAP normalized (max=100) [38]: 3.25
SEAP [39]: 44.2279
SEAP normalized (max=100) [39]: 81.6306
SEAP [40]: 50.6217
SEAP normalized (max=100) [40]: 93.4314
SEAP [41]: 46.5279
SEAP normalized (max=100) [41]: 85.8756
SEAP [42]: 52.0969
SEAP normalized (max=100) [42]: 96.1542
SEAP [43]: 54.1806
SEAP normalized (max=100) [43]: 100
SEAP [44]: 42.1946
SEAP normalized (max=100) [44]: 77.8778
SEAP [45]: 16.2179
SEAP normalized (max=100) [45]: 29.933
SEAP [46]: 5.677
SEAP normalized (max=100) [46]: 10.4785
SEAP [47]: 3.434
SEAP normalized (max=100) [47]: 6.3381
SEAP [48]: 36.2682
SEAP normalized (max=100) [48]: 14.0118
SEAP [49]: 38.2081
SEAP normalized (max=100) [49]: 14.7612
SEAP [50]: 49.7513
SEAP normalized (max=100) [50]: 19.2208
SEAP [51]: 115.969
SEAP normalized (max=100) [51]: 44.8031
SEAP [52]: 258.841
SEAP normalized (max=100) [52]: 100
SEAP [53]: 180.703
SEAP normalized (max=100) [53]: 69.8126
SEAP [54]: 50.1494
SEAP normalized (max=100) [54]: 19.3746
SEAP [55]: 40.7727
SEAP normalized (max=100) [55]: 77.7639
SEAP [56]: 41.3533
SEAP normalized (max=100) [56]: 78.8713
SEAP [57]: 40.3779
SEAP normalized (max=100) [57]: 77.0109
SEAP [58]: 52.4314
SEAP normalized (max=100) [58]: 100
SEAP [59]: 43.8328
SEAP normalized (max=100) [59]: 83.6002
SEAP [60]: 28.8093
SEAP normalized (max=100) [60]: 54.9466
SEAP [61]: 14.8804
SEAP normalized (max=100) [61]: 28.3807
SEAP [62]: 13.0836
SEAP normalized (max=100) [62]: 24.9537
SEAP [63]: 6.8
SEAP normalized (max=100) [63]: 12.9702
SEAP [64]: 29.6608
SEAP normalized (max=100) [64]: 89.6354
SEAP [65]: 26.3749
SEAP normalized (max=100) [65]: 79.7051
SEAP [66]: 26.5882
SEAP normalized (max=100) [66]: 80.3497
SEAP [67]: 28.0379
SEAP normalized (max=100) [67]: 84.7308
SEAP (Supp Fig 10b, Bcl2-v4, venetoclax 100 nM): 26.0079
